According to paper PMC4624507 (2015):

Columns and labels:
Test in all cases: ITC
Details in all cases: 135 mM KCl, 15 mM NaCl, 10 mM MgCl2; 50 mM TrisCl pH 8.0, 37 °C
[1] = system: metE aptamer U157A (RNA, riboswitch) GGCAUUUUCUCUUAUCGAGAGUUGGGCGAGGGAUUGGCCUUUUGACCCCAACAGCAACCGACCGUAAUACCAUUGUGAAAUGGGGCGCACUGCUUUUCGCGCCGAGACUGAUGUCUCAUAAGGCACGGAGCUAAUUCCAUCAGAUUGUGUCUGAGAGAUGAGAGAGGCAGUG
[2] = system: metE aptamer A153C (RNA, riboswitch) GGCAUUUUCUCUUAUCGAGAGUUGGGCGAGGGAUUGGCCUUUUGACCCCAACAGCAACCGACCGUAAUACCAUUGUGAAAUGGGGCGCACUGCUUUUCGCGCCGAGACUGAUGUCUCAUAAGGCCCGGUGCUAAUUCCAUCAGAUUGUGUCUGAGAGAUGAGAGAGGCAGUG
[3] = system: metE aptamer A153G (RNA, riboswitch) GGCAUUUUCUCUUAUCGAGAGUUGGGCGAGGGAUUGGCCUUUUGACCCCAACAGCAACCGACCGUAAUACCAUUGUGAAAUGGGGCGCACUGCUUUUCGCGCCGAGACUGAUGUCUCAUAAGGCGCGGUGCUAAUUCCAUCAGAUUGUGUCUGAGAGAUGAGAGAGGCAGUG
[4] = system: metE aptamer A89G/Δ153 (RNA, riboswitch) GGCAUUUUCUCUUAUCGAGAGUUGGGCGAGGGAUUGGCCUUUUGACCCCAACAGCAACCGGCCGUAAUACCAUUGUGAAAUGGGGCGCACUGCUUUUCGCGCCGAGACUGAUGUCUCAUAAGGCCGGUGCUAAUUCCAUCAGAUUGUGUCUGAGAGAUGAGAGAGGCAGUG
[5] = system: B. subtilis metE wild type aptamer domain (RNA, riboswitch) GGCAUUUUCUCUUAUCGAGAGUUGGGCGAGGGAUUGGCCUUUUGACCCCAACAGCAACCGACCGUAAUACCAUUGUGAAAUGGGGCGCACUGCUUUUCGCGCCGAGACUGAUGUCUCAUAAGGCACGGUGCUAAUUCCAUCAGAUUGUGUCUGAGAGAUGAGAGAGGCAGUG

KD,obs [1]: 24 ± 7 µM | KD,obs [2]: 0.15 ± 0.02 µM | KD,obs [3]: 0.15 ± 0.02 µM | KD,obs [4]: 16 ± 1 µM | KD,obs [5]: 0.079 ± 0.008 µM
Structure (SMILES): C[S+](CC[C@H](N)C(=O)O)C[C@H]1O[C@@H](n2cnc3c(N)ncnc32)[C@H](O)[C@@H]1O (some centres unmarked)
